The values below come from PubChem BioAssay (NCI).

“And” between values parts separate entries of the source, which are not always exact repeats. Identical values can stand only once.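 Exposure lasted 48 hours, with cells grown in 96-well plates and compounds tested at five concentrations. GI50 is the concentration that inhibits growth by half. TGI denotes the concentration required for complete inhibition of growth.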

Among the test systems are HL-60(TB) leukemia; MCF7 breast; OVCAR-3 ovarian; OVCAR-5 ovarian; OVCAR-8 ovarian; PC-3 prostate; SF-295 CNS; SNB-75 CNS; TK-10 renal; UO-31 renal.
Assay in all cases: DTP human tumour cell line panel, 48 h

On to `COc1ccc2c(N)ncc(C#Cc3cc(C(=O)Nc4ccc(CN5CCN(C)CC5)c(C(F)(F)F)c4)cnc3C)c2c1`, for which the GI50 (in general, the concentration at which growth is held to half of that of the control) in the assay with HL-60(TB) leukemia was 1630 nM; in the assay on MCF7 breast, 0.745 µM; in the assay with OVCAR-3 ovarian, 1.31 µM; in the assay on OVCAR-5 ovarian, 1330 nM; in the assay with OVCAR-8 ovarian, 0.861 µM; in the assay on PC-3 prostate it was 924 nM. Also, the GI50 with SF-295 CNS is 4.78 µM; in the assay on SNB-75 CNS, 0.729 µM; in the assay on TK-10 renal, 0.821 µM; with UO-31 renal it was 632 nM. Further, the TGI – broadly, the concentration giving total growth inhibition – with HL-60(TB) leukemia came out at 11.1 µM; with MCF7 breast it was 2.63 µM; in the assay on OVCAR-3 ovarian, 5.29 µM; with OVCAR-5 ovarian, 3.78 µM; with OVCAR-8 ovarian, 2.71 µM; with PC-3 prostate it was 3.56 µM. The TGI came to 16.7 µM with SF-295 CNS, 4.38 µM in the assay with SNB-75 CNS, 2.19 µM in the assay on TK-10 renal and 2.28 µM with UO-31 renal.

For `C[C@]12CC[C@H]3[C@@H](CCC4=CC(=O)CC[C@@]43C)[C@@H]1CC[C@@H]2c1csc(N)n1`, the GI50 in the assay with HL-60(TB) leukemia was 1650 nM; in the assay on MCF7 breast it was 3.42 µM; in the assay on OVCAR-3 ovarian, 3.38 µM; in the assay with OVCAR-5 ovarian it was 15000 nM; in the assay with OVCAR-8 ovarian it was 3.42 µM; with PC-3 prostate it was 2880 nM. In addition, the GI50 with SF-295 CNS is 1.27 µM; in the assay with SNB-75 CNS it was 8.62 µM; in the assay on TK-10 renal it was 11.3 µM; in the assay on UO-31 renal, 2460 nM. Moreover, the TGI with HL-60(TB) leukemia came out at 8.18 µM; with MCF7 breast, 15.5 µM; with OVCAR-3 ovarian it was 12.3 µM; in the assay with OVCAR-5 ovarian, 38.7 µM; in the assay with OVCAR-8 ovarian, 26.7 µM; in the assay with PC-3 prostate, 47.1 µM. In addition, the TGI in the assay with SF-295 CNS came out at 4.2 µM; in the assay with SNB-75 CNS, 24.2 µM; with TK-10 renal, 43 µM; with UO-31 renal, 11.2 µM.

For `CC(=O)O[C@H]1C(=O)[C@@]2(C)C([C@H](OC(=O)c3ccccc3)[C@]3(O)C[C@H](OC(=O)[C@H](O)[C@@H](NC(=O)c4ccccc4)c4ccccc4)C(C)=C1C3(C)C)[C@]1(OC(C)=O)CO[C@@H]1C[C@@H]2O` (some centres undefined), the GI50 in the assay on HL-60(TB) leukemia was 5.28 nM; with MCF7 breast, less than 0.005 µM; in the assay on OVCAR-3 ovarian, 0.0056 µM; in the assay with OVCAR-5 ovarian it was 22.6 nM; in the assay with OVCAR-8 ovarian it was 0.00804 µM; in the assay with PC-3 prostate, 12.9 nM. Besides, the GI50 with SF-295 CNS was 0.0173 µM; in the assay with SNB-75 CNS, less than 0.005 µM; in the assay with UO-31 renal, 1410 nM. In addition, the TGI is 0.0209 µM in the assay with HL-60(TB) leukemia; greater than 50 µM in the assay with MCF7 breast; 0.0589 µM in the assay on OVCAR-3 ovarian; greater than 50 µM with OVCAR-5 ovarian; greater than 50 µM in the assay with OVCAR-8 ovarian; greater than 50 µM in the assay with PC-3 prostate. Moreover, the TGI in the assay with SF-295 CNS is greater than 50 µM; in the assay with SNB-75 CNS it was 0.0186 µM; in the assay with TK-10 renal, greater than 50 µM; with UO-31 renal, greater than 50 µM.

Take `Cn1nccc1Nc1nccc(-c2ccn([C@H](CO)c3ccc(Cl)c(F)c3)c(=O)c2)n1`: the GI50 is 1890 nM with HL-60(TB) leukemia; 27.4 µM with MCF7 breast; 37.5 µM in the assay with OVCAR-3 ovarian; 2550 nM in the assay on OVCAR-5 ovarian; 6.56 µM in the assay on OVCAR-8 ovarian; 43600 nM in the assay on PC-3 prostate. Also, the GI50 in the assay on SF-295 CNS was 76.3 µM; in the assay on SNB-75 CNS, 24.9 µM; with TK-10 renal, 24 µM; in the assay with UO-31 renal, 24700 nM. The TGI in the assay on HL-60(TB) leukemia is 30.4 µM; in the assay with MCF7 breast it was greater than 100 µM; in the assay on OVCAR-3 ovarian, greater than 100 µM; in the assay with OVCAR-5 ovarian, greater than 100 µM; in the assay with OVCAR-8 ovarian it was greater than 100 µM; in the assay with PC-3 prostate, greater than 100 µM. For the same molecule, the TGI with SF-295 CNS, in the assay on SNB-75 CNS, with TK-10 renal and in the assay with UO-31 renal was greater than 100 µM throughout.

Turning to `CN(C)CCCC1(c2ccc(F)cc2)OCc2cc(-c3cccc4[nH]ccc34)ccc21` (centres undefined), the GI50 is 1810 nM in the assay with HL-60(TB) leukemia; 1.55 µM in the assay on MCF7 breast; 1.79 µM in the assay with OVCAR-3 ovarian; 1710 nM in the assay with OVCAR-5 ovarian; 1.86 µM in the assay with OVCAR-8 ovarian; 1580 nM in the assay with PC-3 prostate. Besides, the GI50 in the assay on SF-295 CNS was 1.84 µM; in the assay on SNB-75 CNS, 1.27 µM; with TK-10 renal, 1.7 µM; in the assay on UO-31 renal, 1350 nM. Besides, the TGI came to 3.59 µM in the assay with HL-60(TB) leukemia; 3.25 µM in the assay with MCF7 breast; 3.35 µM with OVCAR-3 ovarian; 3.27 µM in the assay on OVCAR-5 ovarian; 3.7 µM with OVCAR-8 ovarian; 3.31 µM in the assay with PC-3 prostate. The TGI in the assay on SF-295 CNS is 3.44 µM; with SNB-75 CNS, 3.37 µM; in the assay with TK-10 renal, 3.2 µM; in the assay on UO-31 renal it was 2.63 µM.

For the molecule `COc1cc2c(N3CCN(C(=O)Nc4ccc(OC(C)C)cc4)CC3)ncnc2cc1OCCCN1CCCCC1`, the GI50 in the assay on HL-60(TB) leukemia was 15100 nM; with MCF7 breast, 13.4 µM; in the assay on OVCAR-3 ovarian, 22.2 µM; with OVCAR-5 ovarian, 26800 nM; in the assay on OVCAR-8 ovarian, 20.9 µM; in the assay with PC-3 prostate, 18800 nM. In addition, the GI50 with SF-295 CNS is 12.5 µM; in the assay with SNB-75 CNS, 3.29 µM; with TK-10 renal, 38.9 µM; in the assay with UO-31 renal, 15200 nM. The TGI with HL-60(TB) leukemia was 36.1 µM; with MCF7 breast, 36.6 µM; in the assay with OVCAR-3 ovarian it was greater than 59 µM; in the assay with OVCAR-5 ovarian, greater than 90.1 µM; with OVCAR-8 ovarian, 99.2 µM; in the assay on PC-3 prostate, greater than 100 µM. Besides, the TGI was 27.9 µM with SF-295 CNS, 26.4 µM with SNB-75 CNS, greater than 100 µM in the assay on TK-10 renal and 40.7 µM in the assay with UO-31 renal.

Consider `COCC([C@@H](O)C(O)C(=O)NCC[C@@H](C)c1nc(/C=C/CC2OC3(C[C@H](O)C2C)OC(C(C[C@H](O)C(C)[C@H](O)C(C)/C=C(C)/C(C)=C/C=C/C(C)=C/C#N)OC)[C@@H](OP(=O)(O)O)C3(C)C)co1)N(C)C` (some centres undefined), for which the TGI came to 0.00207 µM in the assay with HL-60(TB) leukemia; 0.000347 µM in the assay with MCF7 breast; 0.000326 µM in the assay with OVCAR-3 ovarian; 0.000345 µM in the assay with OVCAR-5 ovarian; 0.000423 µM in the assay with OVCAR-8 ovarian; 0.000321 µM in the assay with PC-3 prostate. The TGI in the assay on SF-295 CNS came to 0.000328 µM; in the assay on SNB-75 CNS it was 0.000327 µM; with TK-10 renal, 0.00024 µM; in the assay with UO-31 renal it was 0.00279 µM.

As to `N#Cc1nc2c(S(=O)(=O)c3ccc(Cl)cc3)c(N)n(Nc3cccc(Cl)c3)c2nc1C#N`, the GI50 with HL-60(TB) leukemia was 5.2 nM; in the assay with MCF7 breast, 0.015 µM; in the assay with OVCAR-5 ovarian it was 21.9 nM and 22.4 nM; in the assay with PC-3 prostate it was 2.79 nM; in the assay on SF-295 CNS, 0.0427 µM; with SNB-75 CNS, 0.0115 µM. Also, the GI50 was 0.0207 µM with TK-10 renal and 333 nM with UO-31 renal. Moreover, the TGI with HL-60(TB) leukemia was 0.0871 µM; in the assay with OVCAR-3 ovarian, 0.0132 µM; in the assay with OVCAR-5 ovarian, 0.106 µM and 0.175 µM; in the assay on OVCAR-8 ovarian, greater than 100 µM; in the assay with SF-295 CNS, 0.276 µM; in the assay with SNB-75 CNS, 0.059 µM. In the assay on UO-31 renal, this molecule yielded a TGI greater than 100 µM.

Take `Nc1ncnc2c1N=C(c1ccc3c(c1)OCO3)CC(c1ccc(Cl)cc1)N2` (centres undefined): the GI50 with HL-60(TB) leukemia is 5380 nM; in the assay with MCF7 breast, 3.61 µM; in the assay with OVCAR-3 ovarian, 3.71 µM; in the assay with OVCAR-5 ovarian it was 18300 nM; with OVCAR-8 ovarian, 4.66 µM; in the assay on PC-3 prostate it was 9060 nM. In addition, the GI50 in the assay on SF-295 CNS was 14.7 µM; in the assay on SNB-75 CNS, 5.22 µM; in the assay on TK-10 renal, 8.22 µM; in the assay with UO-31 renal, 7470 nM. Moreover, the concentration for total growth inhibition (TGI) in the assay with HL-60(TB) leukemia is greater than 100 µM; with MCF7 breast, 45.5 µM; with OVCAR-3 ovarian, 18.6 µM; in the assay with OVCAR-5 ovarian it was 90.7 µM; in the assay with OVCAR-8 ovarian it was 25.1 µM; in the assay on PC-3 prostate, 22.1 µM. Besides, the TGI with SF-295 CNS was greater than 100 µM; in the assay with SNB-75 CNS, 38.3 µM; in the assay with TK-10 renal, 38.9 µM; with UO-31 renal, greater than 100 µM.

For the molecule `O=C1/C(=C\c2ccccc2)CN(C(=O)CCN2CCCCC2)C/C1=C/c1ccccc1`, the TGI in the assay on HL-60(TB) leukemia was determined as 1.17 µM; in the assay on MCF7 breast it was 1.86 µM; in the assay with OVCAR-3 ovarian, 6.5 µM; in the assay with OVCAR-5 ovarian, 3.96 µM; in the assay on OVCAR-8 ovarian, 5.47 µM; with PC-3 prostate it was 3.25 µM. Further, the TGI is 3.16 µM in the assay on SF-295 CNS, 6.79 µM with SNB-75 CNS, 10.9 µM with TK-10 renal and 4.56 µM in the assay on UO-31 renal.

On to `c1ccc(-c2[nH]ncc2-c2ccnc(-c3ccc(OCCn4ccnc4)cc3)c2)nc1`, for which the GI50 in the assay on HL-60(TB) leukemia was greater than 25000 nM; in the assay on MCF7 breast, greater than 25 µM; in the assay with OVCAR-3 ovarian it was 22.4 µM; in the assay with OVCAR-5 ovarian, greater than 25000 nM; in the assay on OVCAR-8 ovarian, 14.4 µM; in the assay with PC-3 prostate, 13200 nM. In addition, the GI50 in the assay on SF-295 CNS is greater than 25 µM; in the assay on SNB-75 CNS, greater than 25 µM; with TK-10 renal, greater than 25 µM; in the assay with UO-31 renal, 6570 nM. Further, the TGI in the assay with HL-60(TB) leukemia, in the assay on MCF7 breast, with OVCAR-3 ovarian, in the assay on OVCAR-5 ovarian, in the assay with OVCAR-8 ovarian and with PC-3 prostate was greater than 25 µM each time. The TGI with SF-295 CNS, with SNB-75 CNS, in the assay on TK-10 renal and with UO-31 renal was greater than 25 µM throughout.
